From PubChem BioAssay (NCI)
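Compound exposure: 48 hours, 5 concentrations, 96-well plates. TGI marks complete inhibition of growth.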

How the values were obtained:
Assay in all cases: NCI anticancer screen, dose series, 48 h
NCI-H23 lung = system: NCI-H23 lung
HS 578T breast = system: HS 578T breast
HOP-62 NSCLC = system: HOP-62 NSCLC
A549 NSCLC = system: A549 NSCLC
SF-539 CNS = system: SF-539 CNS
MDA-MB-435 = system: MDA-MB-435
RPMI-8226 leukemia = system: RPMI-8226 leukemia
T-47D breast = system: T-47D breast
PC-3 prostate = system: PC-3 prostate
RXF 393 renal = system: RXF 393 renal
ACHN renal = system: ACHN renal
786-0 renal = system: 786-0 renal
UO-31 renal = system: UO-31 renal
LOX IMVI melanoma = system: LOX IMVI melanoma
SNB-19 CNS = system: SNB-19 CNS
U251 CNS = system: U251 CNS
NCI-H522 lung = system: NCI-H522 lung
SN12C renal = system: SN12C renal
KM12 colon = system: KM12 colon
IGROV1 ovarian = system: IGROV1 ovarian
CCRF-CEM leukemia = system: CCRF-CEM leukemia
SF-295 CNS = system: SF-295 CNS
SW-620 colon = system: SW-620 colon
OVCAR-3 ovarian = system: OVCAR-3 ovarian
UACC-62 melanoma = system: UACC-62 melanoma
MCF7 breast = system: MCF7 breast
OVCAR-8 ovarian = system: OVCAR-8 ovarian
NCI-H460 lung = system: NCI-H460 lung
M14 melanoma = system: M14 melanoma
HL-60(TB) leukemia = system: HL-60(TB) leukemia
CAKI-1 renal = system: CAKI-1 renal
SK-MEL-5 melanoma = system: SK-MEL-5 melanoma
SK-MEL-2 melanoma = system: SK-MEL-2 melanoma
HCT-116 colon = system: HCT-116 colon
OVCAR-5 ovarian = system: OVCAR-5 ovarian
COLO 205 colon = system: COLO 205 colon
SF-268 CNS = system: SF-268 CNS
HCT-15 colon = system: HCT-15 colon
UACC-257 melanoma = system: UACC-257 melanoma
HOP-92 NSCLC = system: HOP-92 NSCLC
K-562 leukemia = system: K-562 leukemia
MDA-N = system: MDA-N
SK-OV-3 ovarian = system: SK-OV-3 ovarian
NCI/ADR-RES ovarian = system: NCI/ADR-RES ovarian
NCI-H226 lung = system: NCI-H226 lung
DU-145 prostate = system: DU-145 prostate
SR leukemia = system: SR leukemia
MOLT-4 leukemia = system: MOLT-4 leukemia
MDA-MB-231 breast = system: MDA-MB-231 breast
HT29 colon = system: HT29 colon
A498 renal = system: A498 renal
SK-MEL-28 melanoma = system: SK-MEL-28 melanoma
TK-10 renal = system: TK-10 renal
EKVX NSCLC = system: EKVX NSCLC
SNB-75 CNS = system: SNB-75 CNS
OVCAR-4 ovarian = system: OVCAR-4 ovarian

`COc1ccccc1-c1cc(=O)c2ccccc2n1C1CC1` gave a TGI (NCI-H23 lung) of 22.8 µM, a TGI (HS 578T breast) of 25.7 µM and a TGI (HOP-62 NSCLC) of 15.4 µM. The TGI (A549 NSCLC) was 12.8 µM, the TGI (SF-539 CNS) was 16.5 µM and the TGI (MDA-MB-435) was 12.5 µM. It also gave a TGI (RPMI-8226 leukemia) of 5.64 µM, a TGI (T-47D breast) of 9.73 µM and a TGI (PC-3 prostate) of 27.8 µM. It also gave a TGI (RXF 393 renal) of 6.62 µM, a TGI (ACHN renal) of 5.78 µM and a TGI (786-0 renal) of 15.3 µM. It also gave a TGI (UO-31 renal) of 19 µM, a TGI (LOX IMVI melanoma) of 15.5 µM and a TGI (SNB-19 CNS) of 34.3 µM. For the same compound, the TGI (U251 CNS) was 14.2 µM, the TGI (NCI-H522 lung) was 5.63 µM and the TGI (SN12C renal) was 19.5 µM. For the same compound, the TGI (KM12 colon) was 12 µM, the TGI (IGROV1 ovarian) was 44 µM and the TGI (CCRF-CEM leukemia) was 56.1 µM. The TGI (SF-295 CNS) was 7.99 µM, the TGI (SW-620 colon) was 15.8 µM and the TGI (OVCAR-3 ovarian) was 11 µM. The TGI (UACC-62 melanoma) was 11.5 µM, the TGI (MCF7 breast) was 18.7 µM and the TGI (OVCAR-8 ovarian) was 18.1 µM. For the same compound, the TGI (NCI-H460 lung) was 15.7 µM, the TGI (M14 melanoma) was 16.2 µM and the TGI (HL-60(TB) leukemia) was 35.5 µM. The TGI (CAKI-1 renal) was 14.1 µM, the TGI (SK-MEL-5 melanoma) was 14.8 µM and the TGI (SK-MEL-2 melanoma) was 8.07 µM. For the same compound, the TGI (HCT-116 colon) was 10.4 µM, the TGI (OVCAR-5 ovarian) was 14.2 µM and the TGI (COLO 205 colon) was 11.1 µM. It also gave a TGI (SF-268 CNS) of 20.5 µM, a TGI (HCT-15 colon) of 12.2 µM and a TGI (UACC-257 melanoma) of 26.6 µM. For the same compound, the TGI (HOP-92 NSCLC) was 19.8 µM, the TGI (K-562 leukemia) was over 100 µM and the TGI (MDA-N) was 18 µM. The TGI (SK-OV-3 ovarian) was 41.1 µM, the TGI (NCI/ADR-RES ovarian) was 31.3 µM and the TGI (NCI-H226 lung) was 15 µM. The TGI (DU-145 prostate) was 14.4 µM, the TGI (SR leukemia) was 18.7 µM and the TGI (MOLT-4 leukemia) was 45.9 µM. The TGI (MDA-MB-231 breast) was 16 µM and the TGI (HT29 colon) was 4.37 µM.

Compound `C=CCCC1CCCCC/C1=N\N(C)C` (stereo not given) has a TGI (NCI-H23 lung) of over 100 µM, a TGI (HS 578T breast) of over 100 µM and a TGI (HOP-62 NSCLC) of over 100 µM. It also gave a TGI (A549 NSCLC) of over 100 µM, a TGI (A498 renal) of over 100 µM and a TGI (SF-539 CNS) of over 100 µM. The TGI (MDA-MB-435) was over 100 µM, the TGI (RPMI-8226 leukemia) was over 100 µM and the TGI (T-47D breast) was over 100 µM. The TGI (PC-3 prostate) was over 100 µM, the TGI (SK-MEL-28 melanoma) was over 100 µM and the TGI (ACHN renal) was over 100 µM. The TGI (786-0 renal) was over 100 µM, the TGI (UO-31 renal) was over 100 µM and the TGI (LOX IMVI melanoma) was over 100 µM. The TGI (SNB-19 CNS) was over 100 µM, the TGI (U251 CNS) was over 100 µM and the TGI (NCI-H522 lung) was over 100 µM. The TGI (SN12C renal) was over 100 µM, the TGI (KM12 colon) was over 100 µM and the TGI (IGROV1 ovarian) was over 100 µM. It also gave a TGI (CCRF-CEM leukemia) of over 100 µM, a TGI (SF-295 CNS) of over 100 µM and a TGI (SW-620 colon) of over 100 µM. It also gave a TGI (TK-10 renal) of over 100 µM, a TGI (OVCAR-3 ovarian) of over 100 µM and a TGI (UACC-62 melanoma) of over 100 µM. The TGI (MCF7 breast) was over 100 µM, the TGI (OVCAR-8 ovarian) was over 100 µM and the TGI (EKVX NSCLC) was over 100 µM. The TGI (NCI-H460 lung) was over 100 µM, the TGI (M14 melanoma) was over 100 µM and the TGI (HL-60(TB) leukemia) was over 100 µM. It also gave a TGI (CAKI-1 renal) of over 100 µM, a TGI (SNB-75 CNS) of over 100 µM and a TGI (SK-MEL-5 melanoma) of over 100 µM. It also gave a TGI (SK-MEL-2 melanoma) of over 100 µM, a TGI (HCT-116 colon) of over 100 µM and a TGI (OVCAR-5 ovarian) of over 100 µM. The TGI (COLO 205 colon) was over 100 µM, the TGI (SF-268 CNS) was over 100 µM and the TGI (HCT-15 colon) was over 100 µM. The TGI (UACC-257 melanoma) was over 100 µM, the TGI (HOP-92 NSCLC) was over 100 µM and the TGI (K-562 leukemia) was over 100 µM. The TGI (MDA-N) was over 100 µM, the TGI (SK-OV-3 ovarian) was over 100 µM and the TGI (NCI/ADR-RES ovarian) was over 100 µM. It also gave a TGI (NCI-H226 lung) of over 100 µM, a TGI (DU-145 prostate) of over 100 µM and a TGI (SR leukemia) of over 100 µM. The TGI (OVCAR-4 ovarian) was over 100 µM, the TGI (MOLT-4 leukemia) was over 100 µM and the TGI (MDA-MB-231 breast) was over 100 µM. For the same compound, the TGI (HT29 colon) was over 100 µM.
